# Measurements published in patent US7429564B2, “Oral insulin therapy” (Emisphere Technologies, Inc., priority 2002, dated 2008).
# Legend:
# [1] = Delivery agent plasma concentrations in monkeys after oral administration; type: in vivo
# Procedure: Similar results were obtained when delivery agents 1-3 were administered orally to monkeys and the plasma concentrations of the delivery agents monitored over time and the AUC calculated.
# [2] = tested on: serum glucose; test: Effective clinical dose of delivery agent in humans (delivery efficiency); type: in vivo, human
# Procedure: Next, delivery agents 1-3 were compared for the ability to efficiently transport an active agent across the GI mucosa in a biologically active form by determining the relationship between delivery agent dose, dose of active agent and the glucose response. The effective dose of delivery agent necessary to deliver a therapeutic dose of active agent and produce a therapeutic effect was measured. For delivery agent 3, the active agent was insulin, and the therapeutic effect was determined by the ability of the delivery agent/insulin combination to lower serum glucose by at least 10% within one hour post administration. For delivery agents 1 and 2, the active agent was heparin, and the therapeutic effect was determined by […]
# [3] = Genotoxicity studies; conditions: four studies
# Procedure: (§1) The present invention comprising compositions of insulin and the delivery agent 4-CNAB was evaluated for safety and toxicity in a nonclinical program that included pharmacological screening, pharmacokinetic profiling, and toxicity assessments in rats and monkeys.
# [4] = tested on: primary molecular targets; test: Receptor binding screening assays
# Procedure: as §1
# [5] = tested on: glucose infusion rate; test: Example 6: glucose clamp study, glucose infusion rate PD and relative biopotency; type: in vivo, human; conditions: SC 15 U
# Description: The glucose clamp technique was applied to compare the time-action profiles of the orally applied insulin in comparison to SC regular insulin. This method utilizes negative feedback from frequent blood glucose sample values to adjust a glucose infusion to maintain a defined and constant blood glucose level. The glucose infusion rate therefore becomes a measure of the pharmacodynamic effect of any insulin administered.
# During each study visit, stabilized individual blood glucose concentrations were maintained after drug administration using a glucose clamp procedure. The glucose clamp technique [DeFronzo, et al. 1979, Glucose Clamp Technique: A Method of Quantifying Insulin Secretion and Resistance, Am. J. Physiol. 237: E214-E223.] was use to compare the time-action profiles of the orally-applied insulin to s.c. insulin. This method utilizes negative feedback from frequent blood glucose sample values to adjust a glucose infusion to maintain euglycemia. The glucose infusion rate becomes a measure of the pharmacodynamic effect of any insulin administered.
# The clamp level was adjusted by a variable intravenous (IV) insulin infusion and glucose infusion rate during a 6 hour baseline period before dosing. During the last 2 hours before administration of the study medication, the insulin infusion was set to a rate of 0.2 mU/kg/min, which rate was not changed until the end of the experiment. At t=0 minutes, exogenous insulin was administered by oral administration or by SC injection. The PD response elicited by the study medication was registered for another 6 hours. No food intake was allowed during this period, but water could be consumed as desired.
# The glucose clamp procedure was performed using a Biostator (glucose controlled insulin infusion system—GCIIS, Life Science Instruments, Elkhart, Ind., USA). A 17-gauge PTFE catheter was inserted into an antecubital vein for blood sampling and kept patent with 0.15 mol/L saline. A dorsal hand vein or lateral wrist vein of the same arm was cannulated in retrograde fashion for insertion of an 18-gauge PTFE double lumen catheter connected to the glucose sensor of the Biostator. The catheterized hand was placed in a hot box and warmed to an air temperature of 55° C. On the contralateral arm, a third vein was cannulated with an 18-gauge PTFE catheter to infuse a glucose solution (20% in water). Into the same vein, an insulin solution (regular human insulin in 0.15 mol/L saline diluted with 2 mL of the patient's blood per 100 mL) was continuously infused by means of a syringe pump (Perfusor Secura FT, Braun, Melsungen, Germany).
# The primary PD endpoint of the study was the area under the glucose infusion rate curve (AUCGIR) in the first hr after drug administration (AUCGIR 0-1h). The secondary endpoints for pharmacodynamic assessment were the following parameters: Maximum glucose infusion rate (GIRmax), time to GIRmax (tGIRmax), area under the glucose infusion rate curve in defined time-intervals (AUCGIR 0-2h, AUCGIR 0-3h, AUCGIR 0-4h, AUCGIR 0-5h, AUCGIR 0-6h), time to early and late half-maximum glucose infusion rate (early and late TGIR 50%), and maximum reduction of C-peptide concentrations.
# PD parameters used for analysis were the maximum glucose infusion rate after application of the study drugs (GIRmax), the time to maximum glucose infusion rate (tGIRmax), time to half-maximum GIR values before GIRmax (early tGIR 50%), time to half-maximum GIR values after GIRmax (late tGIR 50%), and the area under the glucose infusion rate versus time curves from 0 to 60, 120, 180, 240, 300, and 360 min after dosing, and from 180 to 360 min post dose (AUCGIR 0-1h, AUCGIR 0-2h, AUCGIR 0-3h AUCGIR 0-4h, AUCGIR 0-5h, AUCGIR 0-6h, AUCGIR 3-6h, respectively). In addition, plasma concentrations of C-peptide and plasma glucose concentrations were used for PD analysis. […]
# [6] = tested on: blood glucose; parameters: species or system Sprague-Dawley rats; conditions: rat, in vivo, 0.05 mg/kg
# Procedure: An aqueous insulin stock solution was prepared (at pH 7.5) with a final insulin concentration of approximately 15 mg/mL. Delivery agents were dissolved in water with subsequent additions of sodium hydroxide or hydrochloric acid to both dissolve the delivery agent and to titrate the dosing solution to pH 7.5-8.5. The required amount of insulin was added to the delivery agent solution before dosing.
# Insulin levels in the rats were assayed using the Insulin ELISA Test Kit [DSL, Webster, Tex. Cat. #DSL-10-1600]. The assay covered the range 3.125 to 250 mU/mL. Blood glucose levels in the rats were measured using a glucometer, One-Touch Basic Blood Glucose Monitoring System, manufactured by Lifescan Inc. (Milpitas, Calif.).
# A total of 60 male Sprague-Dawley rats were fasted for 24 hours and then anesthetized with Thorazine (1.5 mg/kg, im) and Ketamine (44 mg/kg, im). They were then divided into the following 5 treatment groups: • 1. H2O (p.o. 1 mL/kg) • 2. Carrier (p.o., 1 mL/kg; 200 mg/kg) • 3. Insulin (p.o., 1 ml/kg; 0.5 mg/kg) • 4. Insulin and Carrier (p.o., 1 ml/kg; 0.5 mg/kg Insulin and 200 mg/kg 1182) • 5. Insulin (s.c., 0.05 mg/kg) • There were twelve animals per group, with three being sacrificed at 30, 60, 120 and 180 minutes. For serum insulin and blood glucose monitoring, 0.4 mL of blood was drawn from the tail artery. […]
compound,measurement,setting,value
"O=C(O)CCCNC(=O)c1ccc(Cl)cc1O [4-CNAB, 4-[(4-chloro, 2-hydroxybenzoyl)amino]butanoic acid]",Fold greater penetration of the GI mucosa vs delivery agent 1,[1]; 300 mg oral each,more than 11 fold
same,Fold greater penetration of the GI mucosa vs delivery agent 2,[1]; 300 mg oral each,more than 6 fold
same,AUC,"[1]; monkey, plasma, oral, 300 mg",499 ng·h/mL
same,Effective clinical dose of delivery agent,"[2]; active agent insulin, lowers serum glucose by at least 10% within one hour",200 Mg
same,Fold more efficient in facilitating transit across the GI mucosa vs delivery agent 1,[2]; effective dose ratio,approximately 12 fold
same,Fold more efficient in facilitating transport across the GI mucosa vs delivery agent 2,[2]; effective dose ratio,7.5 fold
same,Genotoxicity findings,[3],no positive findings
same,Activity in receptor binding screening,[4],did not demonstrate potential activity in any of the primary molecular targets
SC insulin: human regular insulin injected subcutaneously (Humulin R or equivalent; Calbiochem insulin in the rat studies),GIR Early t50%,[5],150 ± 87 min
same,GIRmax,[5],3.6 ± 1.8 mg/kg/min
same,Glucose infusion rate AUC0-1h,[5],27 ± 32 mg/kg
same,Glucose infusion rate AUC0-2h,[5],136.54 ± 106.54 mg/kg
same,Glucose infusion rate AUC0-3h,[5],271.43 ± 191.04 mg/kg
same,Glucose infusion rate AUC0-4h,[5],421.33 ± 264.76 mg/kg
same,Glucose infusion rate AUC0-5h,[5],548.83 ± 342.71 mg/kg
same,Glucose infusion rate AUC0-6h,[5],650.70 ± 380.16 mg/kg
same,tGIRmax,[5],255 ± 108 min
same,GIR Early t50%,[5]; listed as SC Regular Insulin,150.40 ± 87.44 min
same,GIRmax,[5]; listed as SC Regular Insulin,3.57 ± 1.79 mg/kg/min
same,Glucose infusion rate AUC0-1h,[5]; listed as SC Regular Insulin,27.38 ± 32.22 mg/kg
same,tGIRmax,[5]; listed as SC Regular Insulin,255.30 ± 108.15 min
same,Delay of tmax vs oral,[6],about 15 minutes
